Values quoted from earlier work, collected in patent US10213411B2, “Use of prodrugs of fumarates in treating heart failure diseases” (priority 2015, dated 2019).
Counter-ions that a name gives are not always drawn.

Columns and labels:
[1] = healthy subjects, compared by MMF plasma levels
[2] = test system: central nervous system (CNS) inflammation; conditions: preclinical
[3] = test system: central nervous system (CNS) inflammation; conditions: preclinical; remark: listed apart in the source
[4] = test system: astrogliosis and microglial activations

dose comparable to 240 mg DMF (Tecfidera) by plasma levels of MMF [1] [mg] | Structure (SMILES) | CNS inflammation in rat EAE [2] | CNS inflammation in murine EAE [3] | astrogliosis and microglial activations associated with EAE [4]
420 | COC(=O)/C=C/C(=O)OCCN1C(=O)CCC1=O [ALKS 8700] | – | – | –
– | COC(=O)/C=C/C(=O)OC [DMF, Dimethyl fumarate] | inhibit central nervous system (CNS) inflammation | inhibit central nervous system (CNS) inflammation | inhibit astrogliosis and microglial activations
